Molecular target: Multidrug resistance-associated protein 1 (Homo sapiens, UniProt P33527)
Assay: TP_TRANSPORTER: intracellular accumulation in KB-3-1 and MRP1-expressing KB-3-1 cells
Type: functional, cell-based, KB-3-1; KB/MRP
Settings: kb/mrp

Sequence of Multidrug resistance-associated protein 1 (P33527 whole entry): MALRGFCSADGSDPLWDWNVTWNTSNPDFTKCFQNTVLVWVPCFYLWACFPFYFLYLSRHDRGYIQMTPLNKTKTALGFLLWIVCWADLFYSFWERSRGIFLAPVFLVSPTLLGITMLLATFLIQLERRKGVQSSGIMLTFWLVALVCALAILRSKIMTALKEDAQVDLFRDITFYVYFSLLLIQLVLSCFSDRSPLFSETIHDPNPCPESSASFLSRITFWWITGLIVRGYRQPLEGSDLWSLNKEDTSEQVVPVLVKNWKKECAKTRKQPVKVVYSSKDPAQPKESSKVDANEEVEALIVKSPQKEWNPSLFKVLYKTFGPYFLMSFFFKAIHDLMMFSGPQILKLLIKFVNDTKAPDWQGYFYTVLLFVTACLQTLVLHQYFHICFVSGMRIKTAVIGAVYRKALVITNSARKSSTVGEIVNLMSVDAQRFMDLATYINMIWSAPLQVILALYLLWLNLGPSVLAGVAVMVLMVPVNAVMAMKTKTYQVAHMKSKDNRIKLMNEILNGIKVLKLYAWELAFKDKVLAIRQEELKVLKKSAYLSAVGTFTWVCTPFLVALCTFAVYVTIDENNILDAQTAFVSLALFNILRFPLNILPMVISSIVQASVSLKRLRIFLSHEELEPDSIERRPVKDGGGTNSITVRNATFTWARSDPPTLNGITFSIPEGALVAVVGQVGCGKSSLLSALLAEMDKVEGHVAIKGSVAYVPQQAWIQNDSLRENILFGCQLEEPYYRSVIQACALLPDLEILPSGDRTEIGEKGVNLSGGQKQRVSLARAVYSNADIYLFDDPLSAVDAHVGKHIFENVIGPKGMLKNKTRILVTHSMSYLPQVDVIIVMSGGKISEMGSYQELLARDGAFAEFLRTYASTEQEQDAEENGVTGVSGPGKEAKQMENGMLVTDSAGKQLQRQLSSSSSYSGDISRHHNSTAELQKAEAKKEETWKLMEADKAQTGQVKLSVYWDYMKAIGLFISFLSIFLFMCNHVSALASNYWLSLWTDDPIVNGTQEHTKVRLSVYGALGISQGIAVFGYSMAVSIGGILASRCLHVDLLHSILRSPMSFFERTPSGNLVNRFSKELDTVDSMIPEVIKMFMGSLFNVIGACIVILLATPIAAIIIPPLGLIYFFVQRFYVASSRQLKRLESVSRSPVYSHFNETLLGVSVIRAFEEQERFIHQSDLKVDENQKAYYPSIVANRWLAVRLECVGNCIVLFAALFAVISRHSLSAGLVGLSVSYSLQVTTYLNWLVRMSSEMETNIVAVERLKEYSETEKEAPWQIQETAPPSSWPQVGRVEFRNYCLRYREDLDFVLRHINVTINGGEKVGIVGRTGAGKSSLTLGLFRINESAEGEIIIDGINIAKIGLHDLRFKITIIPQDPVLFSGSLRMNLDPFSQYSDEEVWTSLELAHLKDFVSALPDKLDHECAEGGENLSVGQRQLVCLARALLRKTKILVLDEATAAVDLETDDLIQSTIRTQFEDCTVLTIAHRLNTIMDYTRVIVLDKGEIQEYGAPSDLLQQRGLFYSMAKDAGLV

| Compound | Activity |
| --- | --- |
| CCc1c2c(nc3ccc(O)cc13)-c1cc3c(c(=O)n1C2)COC(=O)[C@]3(O)CC [7-ETHYL-10-HYDROXYCAMPTOTHECIN] | substrate [+] |
| CCc1c2c(nc3ccc(OC(=O)N4CCC(N5CCCCC5)CC4)cc13)-c1cc3c(c(=O)n1C2)COC(=O)[C@]3(O)CC [IRINOTECAN] | substrate [+] |

Reference: ChEMBL document CHEMBL2074109, “ATP-Dependent efflux of CPT-11 and SN-38 by the multidrug resistance protein (MRP) and its inhibition by PAK-104P” (Mol Pharmacol, 1999)
